Results on one compound are retold here after patent USRE37180E, “Photochemotherapeutical obstruction of newly-formed blood vessels” (Meiji Seika Kaisha, Ltd., priority 1995, dated 2001).

A short description of series [1]: acute toxicity tested by intravenous injection to CD-1 mice (male). As to conditions: mouse, in vivo.
The next series is described as follows: photo-toxicity tests. The format is in vivo.
Another series deals with choroidal vessels. The format is in vivo, normal pigmented rabbits. The text has this: The predetermined regions (that is, said spots) of the blood vessels to be irradiated with the laser beam had been marked preliminarily by photo-coagulation by means of an argon laser beam. Immediately after the irradiation with the laser at 664 nm, as well as one week after the irradiation and one month after the irradiation with the laser at 664 nm, the fundus of the eyes under test was examined by fluorescein angiography.
The eye so treated was subsequently observed under light microscope at the end of 2 hours after the laser irradiation.
The laser-irradiated parts of the eye so treated were subsequently observed under light microscope at the end of 1 hour after the laser irradiation.

Series [2] in a line: metabolic speed and level in the blood plasma. The format is in vivo.
The subject of a further series is serum albumin. As to the kind of experiment: affinity to the serum albumin. Type of series: binding.
The nature of series [3]: liposolubility / penetration into normal tissues. Type of series: physicochemical.
Another series relates to in vivo cells. As to the kind of experiment: transfer into the in vivo cells. As to conditions: not by diffusion.
A further series is described as follows: light absorption. Type of series: physicochemical. As to conditions: can absorb well.
Series [4] has as its system active lesions of the neovascular tissues. As to the kind of experiment: accumulation in neovascular tissues. The following applies: in vivo.
On the set-up of series [5]: species or system normal pigmented rabbits. As to conditions: rabbit, in vivo.
Series [6] deals with choroidal neovascularization. As to the kind of experiment: occlusion of choroidal neovascularization upon irradiation with laser beam. Type of series: in vivo. As to conditions: irradiation with a laser beam at 664 nm.
For series [7] the following is noted: cited from earlier work.

Counter-ions that a name gives are not always drawn.

A word on the LD50: it is the dose at which mortality reaches 50%. A low value points to greater toxicity. In series [1], `C=Cc1c(C)c2cc3nc(c(CC(=O)N[C@@H](CC(=O)O)C(=O)O)c4[nH]c(cc5nc(cc1[nH]2)C(C)=C5CC)c(C)c4C(=O)O)[C@@H](CCC(=O)O)[C@@H]3C` [mono-L-aspartyl chlorin e6 tetra-sodium salt] had a median lethal dose (LD50) of 164 mg/kg. Also, in the series “photo-toxicity tests”, the “adverse side reactions such as erythema and edema” value is “does not involve adverse side reactions such as erythema and edema”. For the same compound, in the series with choroidal vessels (25 mg/kg i.v., laser immediately after injection, 1 hour after irradiation), the “obstruction of choroidal blood vessels (choriocapillaris) maintained, light microscope” value is recorded as “the choroidal blood vessels, more particularly the choriocapillaris continued to have been obstructed”. In addition, the “endothelial cells of the chorio-capillaris / choriocapillaris, light microscope” value with choroidal vessels (25 mg/kg i.v., laser immediately after injection, 2 hours after irradiation) was “endothelial cells of the chorio-capillaris had been swollen and necrotized and the choriocapillaris were obstructed”. The “extent of damages incurred in the choroidal vessels, laser one hour after versus immediately after injection” value in the series with choroidal vessels (25 mg/kg i.v., observed commonly for all the doses) was “the extent of damages incurred in the choroidal vessels is reduced at the laser irradiation as made one hour after the intravenous injection”. In addition, the “degree of obstruction of choroidal vessels compared with argon laser photo-coagulation” value with choroidal vessels (25 mg/kg, laser immediately after administration, one week after irradiation, light microscope) is “the choroidal vessels were obstructed to a substantially same degree in the former case and the latter case”. Also, the “obstruction in the choroidal vessels” value in the series on choroidal vessels (25, 50 and 100 mg/kg i.v., 664 nm laser immediately after injection, fluorescein angiography one week after irradiation) is reported as “the obstruction took place in the choroidal vessels at all the doses”. In addition, the “degree of the obstruction in the choroidal vessels, dose dependence” value in the series on choroidal vessels (25, 50 and 100 mg/kg i.v., laser immediately after injection, one week after irradiation) is on record as “the degree of the obstruction in the choroidal vessels increased with an increased doses”. In series [2] (at the end of 10 hours from the administration), the “level in the blood plasma” value was 1/500. Further, the “metabolic speed relative to photofrin” value in [2] (faster than photofrin) is “at least 10 times”. For the same compound, the “affinity to the serum albumin” value in the series on serum albumin is listed as “has a nature of exhibiting affinity to the serum albumin”. In series [3], the liposolubility result was “low liposolubility”; the “penetration and diffusion into healthy normal tissues having the barrier in vivo” value is “hard to penetrate and diffuse into the healthy normal tissues having the barrier in vivo”. Moreover, in the series with in vivo cells, the “mode of transfer into the in vivo cells” value is “by the phagocytosis and/or pinocytosis”. The compound also showed a light absorption wavelength in the series “light absorption” of 664 nm. Moreover, the “accumulation in the active lesions of the neovascular tissues” value in [4] was “can concentrate into and be accumulated well in the active lesions of the neovascular tissues”. In series [5], the “level in the blood after the administration” value is reported as “can decrease quickly during an earlier period after the administration” and the “metabolism after administration into a human or animal body” value is recorded as “can be metabolized well after its administration into a human or animal body”. Besides, the “necrosis of the vascular endothelial cells and occlusion of choroidal neovascularization” value in series [6] was “cause necrosis of the vascular endothelial cells and occlusion of choroidal neovascularization”. Moreover, in series [7], the “uptake into and excretion from the human and animal body” value is “quickly uptaken into and excreted from the human and animal body”.
